According to PubChem BioAssay (NCI):
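Five compound concentrations were applied to cells in 96-well plates for 48 hours; endpoints were derived by simple linear interpolation of the resulting dose-response curve. TGI is the concentration that stops growth completely.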

Legend:
Experiment in all cases: DTP human tumour cell line panel, 48 h
SK-MEL-2 melanoma = tested on: SK-MEL-2 melanoma
MOLT-4 leukemia = tested on: MOLT-4 leukemia
HOP-62 NSCLC = tested on: HOP-62 NSCLC
HCT-15 colon = tested on: HCT-15 colon
SNB-75 CNS = tested on: SNB-75 CNS
M14 melanoma = tested on: M14 melanoma
A498 renal = tested on: A498 renal
SK-OV-3 ovarian = tested on: SK-OV-3 ovarian
NCI-H522 lung = tested on: NCI-H522 lung
SNB-19 CNS = tested on: SNB-19 CNS
OVCAR-4 ovarian = tested on: OVCAR-4 ovarian
MDA-MB-231 breast = tested on: MDA-MB-231 breast
OVCAR-5 ovarian = tested on: OVCAR-5 ovarian
HT29 colon = tested on: HT29 colon
NCI-H23 lung = tested on: NCI-H23 lung
786-0 renal = tested on: 786-0 renal
SR leukemia = tested on: SR leukemia
RXF 393 renal = tested on: RXF 393 renal
UACC-257 melanoma = tested on: UACC-257 melanoma
T-47D breast = tested on: T-47D breast

Row | SMILES | TGI (SK-MEL-2 melanoma) [µM] | TGI (MOLT-4 leukemia) [µM] | TGI (HOP-62 NSCLC) [µM] | TGI (HCT-15 colon) [µM] | TGI (SNB-75 CNS) [µM] | TGI (M14 melanoma) [µM] | TGI (A498 renal) [µM] | TGI (SK-OV-3 ovarian) [µM] | TGI (NCI-H522 lung) [µM] | TGI (SNB-19 CNS) [µM] | TGI (OVCAR-4 ovarian) [µM] | TGI (MDA-MB-231 breast) [µM] | TGI (OVCAR-5 ovarian) [µM] | TGI (HT29 colon) [µM] | TGI (NCI-H23 lung) [µM] | TGI (786-0 renal) [µM] | TGI (SR leukemia) [µM] | TGI (RXF 393 renal) [µM] | TGI (UACC-257 melanoma) [µM] | TGI (T-47D breast) [µM]
1 | FC(F)(F)c1ccc2c(c1)nc1n2C(c2c(Cl)cccc2Cl)SC1 (stereo not given) | 40.8 | > 100 | 31 | 50.9 | 45.1 | 36.9 | 32.7 | 85.9 | 51.9 | 48.7 | 43.4 | 35.7 | 32.3 | 31.9 | 60.1 | 33.4 | > 100 | 28.7 | 42.9 | 47.4
2 | N#CC1=C(N)N(/N=C/c2ccccc2)C(c2ccccc2)C1(C#N)C#N (stereo not given) | 34.9 | 5.5 | 33.1 | 18.7 | 31.6 | 42.8 | 29.3 | 26.3 | 16.6 | > 54.6 | 28.5 | 31.4 | 39.4 | 15.7 | 33.5 | 16.1 | 8.5 | 9.83 | 23.4 | 24.4
3 | C[C@@H](C[C@H]1OC(C)(C)O[C@@H]1C(C)(C)O)[C@H]1CC=C2[C@]3(C)[C@H](O)C[C@H]4C(C)(C)[C@H](O)CC[C@]4(C)[C@H]3CC[C@]21C | 24.7 | 14.7 | 20.7 | 14.9 | 19.8 | 17.6 | 18.5 | 20.6 | 20.9 | 20.7 | 26.2 | 18.7 | 17.1 | 8.23 | 26.1 | 18.5 | 11.3 | 12.1 | 20.4 | 43.2
4 | CC(C)(C)C(=O)Oc1ccc(/C=C/C(=O)c2ccc(OC(=O)C(C)(C)C)cc2)cc1 | > 100 | 53.2 | > 100 | > 100 | > 100 | > 100 | > 100 | > 100 | 8.78 | > 100 | > 100 | > 100 | > 100 | > 100 | > 100 | > 100 | 76.4 | 87.3 | > 100 | > 100
5 | COC(=O)c1c(CC(Cc2ccc3c(c2)CCCC3)C(=O)O)ccc2c1CCCC2 (stereo not given) | 39.5 | > 100 | 51.7 | 33.8 | > 100 | > 100 | 76.3 | > 100 | 34.1 | > 100 | > 100 | > 100 | > 100 | > 100 | > 100 | > 100 | 91.6 | > 100 | 33.3 | > 100
6 | Cc1ccc(S(=O)C[C@](NC(=O)OCc2ccccc2)(Sc2ccccc2)C(F)F)cc1 (stereo not given in full) | 71.6 | 22.2 | 86.9 | 40.3 | 28.3 | > 100 | 29.7 | 36 | 22.4 | 31.3 | 41.4 | 52.4 | 63.9 | 31.1 | 36.4 | 29.2 | 30.7 | 79.5 | 31.5 | 40
7 | O=C(Cn1cc(Br)c(=O)[nH]c1=O)c1ccc(-c2ccccc2)cc1 | > 17.3 | > 27.5 | 39.2 | 39.7 | 6.51 | > 24.1 | > 100 | > 100 | > 13.9 | 13.2 | > 100 | > 52 | > 27.5 | > 100 | > 27.5 | > 100 | > 100 | > 100 | > 100 | > 100
8 | O=c1[nH]nc(-c2ccccc2)n1/N=C/c1cccc([N+](=O)[O-])c1 | > 100 | > 100 | > 100 | > 100 | > 100 | > 100 | > 100 | > 100 | > 100 | > 100 | > 100 | > 100 | > 100 | > 100 | > 100 | > 100 | > 100 | > 100 | > 100 | > 100
9 | O=[N+]([O-])c1ccc(C2ON=C(c3ccccc3)N2C23CC4CC(CC(C4)C2)C3)cc1 (stereo not given) | > 10 | > 10 | > 10 | > 10 | > 10 | > 10 | > 10 | > 10 | > 10 | > 10 | > 10 | > 10 | > 10 | > 10 | > 10 | > 10 | > 10 | > 10 | > 10 | > 10
